Test results from ChEMBL document CHEMBL4393714, “Multi-targeting protein-protein interaction inhibitors: Evolution of macrocyclic ligands with embedded carbohydrates (MECs) to improve selectivity” (Eur J Med Chem, 2019).

How the values were obtained:
[1] = biological target: Sodium-dependent dopamine transporter (Homo sapiens) (UniProt Q01959); experiment: Displacement of [3H] BTCP from human recombinant dopamine […] at 10 uM measured after 120 mins by scintillation counter method relative to control
[2] = biological target: Sodium-dependent noradrenaline transporter (Homo sapiens) (UniProt P23975); experiment: Displacement of [3H] nisoxetine from human recombinant norepinephrine transporter at 10 uM measured after 120 mins by scintillation counter method relative to control
[3] = biological target: T1, Sodium-dependent serotonin transporter (Homo sapiens, UniProt P31645); experiment: Displacement of [3H] imipramine from human recombinant 5-HT transporter at 10 uM measured after 60 mins by scintillation counter method relative to control
[4] = species on record: Rattus norvegicus; experiment: Displacement of [3H] batrachotoxinin from rat sodium channel site 2 at 10 uM measured after 60 mins by scintillation counter method relative to control
[5] = biological target: Vasopressin V1a receptor (Homo sapiens) (UniProt P37288); experiment: Displacement of [3H] AVP from human recombinant vasopressin V1A receptor at 10 uM measured after 60 mins by scintillation counter method relative to control
[6] = biological target: Vasoactive intestinal polypeptide receptor 1 (Homo sapiens) (UniProt P32241); experiment: Displacement of [125I] VIP from human recombinant VPAC1 receptor at 10 uM measured after 60 mins by scintillation counter method relative to control
[7] = biological target: Somatostatin receptor type 1 (Homo sapiens) (UniProt P30872); experiment: Displacement of [125I] tyr11-somatostatin-14 from human recombinant somatostatin receptor type1 at 10 uM measured after 180 mins by scintillation counter method relative to control
[8] = biological target: 5-hydroxytryptamine receptor 7 (Homo sapiens) (UniProt P34969); experiment: Displacement of [3H]LSD from human recombinant 5-HT7 receptor at 10 uM measured after 120 mins by scintillation counter method relative to control
[9] = biological target: 5-hydroxytryptamine receptor 5A (Homo sapiens) (UniProt P47898); experiment: Displacement of [3H]LSD from human recombinant 5-HT5A receptor at 10 uM measured after 120 mins by scintillation counter method relative to control
[10] = biological target: 5-hydroxytryptamine receptor 3A (Homo sapiens) (UniProt P46098); experiment: Displacement of [3H] BRL 43694 from human 5-HT3 at 10 uM measured after 120 mins by scintillation counter method relative to control
[11] = biological target: Neuropeptide Y receptor type 2 (Homo sapiens) (UniProt P49146); experiment: Displacement of [125I] peptide YY from human neuropeptide Y2 receptor at 10 uM measured after 60 mins by scintillation counter method relative to control
[12] = biological target: Neuromedin-K receptor (Homo sapiens) (UniProt P29371); experiment: Displacement of [3H] HSR 142801 from human recombinant neurokinin beta receptor at 10 uM measured after 120 mins by scintillation counter method
[13] = biological target: Muscarinic acetylcholine receptor M3 (Homo sapiens) (UniProt P20309); experiment: Displacement of [3H]4-DAMP from human recombinant muscarinic 3 receptor at 10 uM measured after 60 mins by scintillation counter method relative to control
[14] = biological target: Muscarinic acetylcholine receptor M1 (Homo sapiens) (UniProt P11229); experiment: Displacement of [3H]pirenzepine from human recombinant muscarinic 1 receptor at 10 uM measured after 60 mins by scintillation counter method relative to control
[15] = biological target: Histamine H1 receptor (Homo sapiens) (UniProt P35367); experiment: Displacement of [3H]pyrilamine from human recombinant H1 receptor at 10 uM measured after 60 mins by scintillation counter method relative to control
[16] = biological target: C-C chemokine receptor type 1 (Homo sapiens) (UniProt P32246); experiment: Displacement of [125I]MIP1-alpha from human recombinant CCR1 receptor at 10 uM measured after 120 mins by scintillation counter method relative to control
[17] = biological target: Galanin receptor type 2 (Homo sapiens) (UniProt O43603); experiment: Displacement of [125I]galanin from human recombinant GAL2 receptor at 10 uM measured after 120 mins by scintillation counter method relative to control
[18] = biological target: Cholecystokinin receptor type A (Homo sapiens) (UniProt P32238); experiment: Displacement of [125I]CCK-8s from human recombinant CCK1 receptor at 10 uM measured after 60 mins by scintillation counter method relative to control
[19] = biological target: Cannabinoid receptor 1 (Homo sapiens) (UniProt P21554); experiment: Displacement of [3H]CP 55940 from human recombinant CB1 receptor at 10 uM measured after 120 mins by scintillation counter method relative to control
[20] = biological target: Type-1 angiotensin II receptor (Homo sapiens) (UniProt P30556); experiment: Displacement of [125I][Sar1,Ile8]-AT-II from human recombinant AT1 receptor at 10 uM measured after 120 mins by scintillation counter method relative to control
[21] = biological target: Adrenergic receptor alpha-1 (Rattus norvegicus) (UniProt P15823+P23944+P43140); experiment: Displacement of [3H] prazosin from rat alpha1 adreno receptor at 10 uM measured after 60 mins by scintillation counter method relative to control; format: protein assay
[22] = biological target: Adenosine receptor A1 (Homo sapiens) (UniProt P30542); experiment: Displacement of [3H]DPCPX from human recombinant A1 receptor at 10 uM measured after 60 mins by scintillation counter method relative to control
[23] = biological target: T2, 5-hydroxytryptamine receptor 1A (Homo sapiens, UniProt P08908); experiment: Displacement of [3H]OH-DPAT from human recombinant 5-HT1A receptor measured after 60 mins by scintillation counter method
T2 sequence (P08908 whole entry): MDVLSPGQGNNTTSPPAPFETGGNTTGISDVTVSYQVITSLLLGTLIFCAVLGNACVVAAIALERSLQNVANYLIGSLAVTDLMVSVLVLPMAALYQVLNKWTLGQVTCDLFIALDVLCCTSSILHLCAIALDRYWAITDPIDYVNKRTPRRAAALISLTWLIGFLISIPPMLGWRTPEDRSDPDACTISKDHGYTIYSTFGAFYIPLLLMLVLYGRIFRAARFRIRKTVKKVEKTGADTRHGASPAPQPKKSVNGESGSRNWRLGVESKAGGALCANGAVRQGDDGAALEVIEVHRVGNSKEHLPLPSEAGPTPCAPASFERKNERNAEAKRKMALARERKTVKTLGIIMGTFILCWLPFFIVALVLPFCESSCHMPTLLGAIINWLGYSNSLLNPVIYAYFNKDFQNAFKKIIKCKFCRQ

[24] = biological target: 5-hydroxytryptamine receptor 2A (Homo sapiens, UniProt P28223); experiment: Displacement of [3H] ketanserin from human recombinant 5-HT2A receptor measured after 60 mins by scintillation counter method
[25] = biological target: 5-hydroxytryptamine receptor 2B (Homo sapiens, UniProt P41595); experiment: Antagonist activity at human recombinant 5-HT2B receptor in CHOK1 cells measured after 30 mins by HTRF assay; format: cell-based
[26] = biological target: T1, Sodium-dependent serotonin transporter; experiment: Displacement of [3H] imipramine from human recombinant 5-HT transporter measured after 60 mins by scintillation counter method
Target sequence in this assay (P31645 whole entry): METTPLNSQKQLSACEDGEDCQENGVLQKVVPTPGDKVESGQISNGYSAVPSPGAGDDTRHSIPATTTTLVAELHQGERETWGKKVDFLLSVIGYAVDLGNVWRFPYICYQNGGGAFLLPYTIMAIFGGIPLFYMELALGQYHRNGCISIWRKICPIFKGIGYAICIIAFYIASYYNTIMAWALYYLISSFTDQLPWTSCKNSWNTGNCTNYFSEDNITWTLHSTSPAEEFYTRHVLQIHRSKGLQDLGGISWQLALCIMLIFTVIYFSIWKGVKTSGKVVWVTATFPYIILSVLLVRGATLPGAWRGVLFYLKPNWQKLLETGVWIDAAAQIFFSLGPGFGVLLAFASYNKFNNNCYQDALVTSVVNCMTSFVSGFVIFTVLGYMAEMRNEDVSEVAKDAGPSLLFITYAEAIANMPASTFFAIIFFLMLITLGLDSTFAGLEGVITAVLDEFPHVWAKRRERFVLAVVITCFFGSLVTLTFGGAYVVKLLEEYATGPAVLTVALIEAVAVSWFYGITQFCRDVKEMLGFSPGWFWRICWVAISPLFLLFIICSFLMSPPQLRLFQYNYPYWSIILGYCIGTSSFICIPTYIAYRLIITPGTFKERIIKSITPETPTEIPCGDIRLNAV

[27] = biological target: Beta-2 adrenergic receptor (Homo sapiens) (UniProt P07550); experiment: Agonist activity at human beta 2 adreno receptor at 10 uM relative to control

5-hydroxytryptamine receptor 2B, sequence (P41595 whole entry): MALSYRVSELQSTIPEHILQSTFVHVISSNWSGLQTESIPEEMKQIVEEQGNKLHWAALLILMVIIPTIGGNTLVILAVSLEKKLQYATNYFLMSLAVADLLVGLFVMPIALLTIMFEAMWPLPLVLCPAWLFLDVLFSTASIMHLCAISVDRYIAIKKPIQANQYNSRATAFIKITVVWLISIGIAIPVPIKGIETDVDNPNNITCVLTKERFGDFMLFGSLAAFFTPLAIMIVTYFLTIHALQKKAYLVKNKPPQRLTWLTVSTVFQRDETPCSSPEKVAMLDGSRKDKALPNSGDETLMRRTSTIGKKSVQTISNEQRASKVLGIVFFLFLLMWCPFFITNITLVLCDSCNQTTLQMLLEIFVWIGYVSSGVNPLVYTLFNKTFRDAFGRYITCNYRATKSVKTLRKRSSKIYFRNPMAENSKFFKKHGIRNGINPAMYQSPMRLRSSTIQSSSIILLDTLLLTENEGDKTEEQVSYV
5-hydroxytryptamine receptor 2A, sequence (P28223 whole entry): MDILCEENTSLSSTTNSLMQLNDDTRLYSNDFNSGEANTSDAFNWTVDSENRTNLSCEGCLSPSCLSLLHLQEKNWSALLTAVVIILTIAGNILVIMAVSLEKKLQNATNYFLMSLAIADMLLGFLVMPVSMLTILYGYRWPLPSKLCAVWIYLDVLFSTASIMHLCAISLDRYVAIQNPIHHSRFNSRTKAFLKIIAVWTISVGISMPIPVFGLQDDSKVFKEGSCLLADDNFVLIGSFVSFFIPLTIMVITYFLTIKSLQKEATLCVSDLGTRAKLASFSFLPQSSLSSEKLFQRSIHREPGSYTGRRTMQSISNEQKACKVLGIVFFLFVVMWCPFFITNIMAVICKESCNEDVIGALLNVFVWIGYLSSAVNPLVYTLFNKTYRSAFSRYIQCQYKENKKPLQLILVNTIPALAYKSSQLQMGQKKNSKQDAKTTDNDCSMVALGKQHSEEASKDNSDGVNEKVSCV
5-hydroxytryptamine receptor 5A (Homo sapiens), sequence (P47898 whole entry): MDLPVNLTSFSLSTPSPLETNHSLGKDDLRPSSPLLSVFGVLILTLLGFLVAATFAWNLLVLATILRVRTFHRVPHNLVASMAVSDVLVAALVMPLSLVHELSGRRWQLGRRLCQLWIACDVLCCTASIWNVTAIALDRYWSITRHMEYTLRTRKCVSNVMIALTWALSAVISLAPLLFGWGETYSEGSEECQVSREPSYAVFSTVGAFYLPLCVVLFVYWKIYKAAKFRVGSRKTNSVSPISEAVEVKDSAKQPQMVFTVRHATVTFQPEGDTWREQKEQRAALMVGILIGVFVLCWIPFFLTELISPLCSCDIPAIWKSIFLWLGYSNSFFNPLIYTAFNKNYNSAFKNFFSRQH
Neuropeptide Y receptor type 2 (Homo sapiens), sequence (P49146 whole entry): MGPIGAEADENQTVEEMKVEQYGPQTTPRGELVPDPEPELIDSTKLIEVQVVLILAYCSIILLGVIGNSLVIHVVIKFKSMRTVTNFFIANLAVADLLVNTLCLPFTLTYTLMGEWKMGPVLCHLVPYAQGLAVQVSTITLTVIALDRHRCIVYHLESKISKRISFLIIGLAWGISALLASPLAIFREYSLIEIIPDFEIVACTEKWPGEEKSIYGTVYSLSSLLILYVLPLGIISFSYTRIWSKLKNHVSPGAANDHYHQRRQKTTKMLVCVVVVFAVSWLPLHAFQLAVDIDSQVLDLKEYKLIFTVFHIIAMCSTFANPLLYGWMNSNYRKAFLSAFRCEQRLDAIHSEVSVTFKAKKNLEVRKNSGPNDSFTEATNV
Vasoactive intestinal polypeptide receptor 1 (Homo sapiens), sequence (P32241 whole entry): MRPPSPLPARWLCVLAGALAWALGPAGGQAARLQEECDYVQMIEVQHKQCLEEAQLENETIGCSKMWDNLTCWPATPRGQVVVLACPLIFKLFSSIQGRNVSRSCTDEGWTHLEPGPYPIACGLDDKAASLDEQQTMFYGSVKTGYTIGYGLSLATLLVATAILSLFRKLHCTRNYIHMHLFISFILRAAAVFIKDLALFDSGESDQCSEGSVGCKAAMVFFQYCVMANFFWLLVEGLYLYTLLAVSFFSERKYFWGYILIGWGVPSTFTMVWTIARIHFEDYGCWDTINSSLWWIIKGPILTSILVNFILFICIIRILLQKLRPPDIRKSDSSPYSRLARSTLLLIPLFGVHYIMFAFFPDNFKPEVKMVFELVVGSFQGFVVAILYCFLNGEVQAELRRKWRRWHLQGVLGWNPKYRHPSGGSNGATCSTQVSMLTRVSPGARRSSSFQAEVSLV
5-hydroxytryptamine receptor 7 (Homo sapiens), sequence (P34969 whole entry): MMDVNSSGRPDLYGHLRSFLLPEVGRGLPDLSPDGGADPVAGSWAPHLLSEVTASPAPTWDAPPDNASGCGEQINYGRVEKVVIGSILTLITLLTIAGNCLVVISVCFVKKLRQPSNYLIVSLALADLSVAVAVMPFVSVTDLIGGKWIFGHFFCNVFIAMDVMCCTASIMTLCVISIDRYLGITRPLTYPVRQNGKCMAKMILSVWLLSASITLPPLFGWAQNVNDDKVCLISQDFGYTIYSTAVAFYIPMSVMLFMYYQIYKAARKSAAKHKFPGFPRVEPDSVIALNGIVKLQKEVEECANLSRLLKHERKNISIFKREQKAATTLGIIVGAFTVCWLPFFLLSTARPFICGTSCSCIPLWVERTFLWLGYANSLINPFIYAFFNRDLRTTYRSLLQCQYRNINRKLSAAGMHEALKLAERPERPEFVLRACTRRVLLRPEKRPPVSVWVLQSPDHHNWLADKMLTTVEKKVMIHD
Muscarinic acetylcholine receptor M3 (Homo sapiens), sequence (P20309 whole entry, looked up): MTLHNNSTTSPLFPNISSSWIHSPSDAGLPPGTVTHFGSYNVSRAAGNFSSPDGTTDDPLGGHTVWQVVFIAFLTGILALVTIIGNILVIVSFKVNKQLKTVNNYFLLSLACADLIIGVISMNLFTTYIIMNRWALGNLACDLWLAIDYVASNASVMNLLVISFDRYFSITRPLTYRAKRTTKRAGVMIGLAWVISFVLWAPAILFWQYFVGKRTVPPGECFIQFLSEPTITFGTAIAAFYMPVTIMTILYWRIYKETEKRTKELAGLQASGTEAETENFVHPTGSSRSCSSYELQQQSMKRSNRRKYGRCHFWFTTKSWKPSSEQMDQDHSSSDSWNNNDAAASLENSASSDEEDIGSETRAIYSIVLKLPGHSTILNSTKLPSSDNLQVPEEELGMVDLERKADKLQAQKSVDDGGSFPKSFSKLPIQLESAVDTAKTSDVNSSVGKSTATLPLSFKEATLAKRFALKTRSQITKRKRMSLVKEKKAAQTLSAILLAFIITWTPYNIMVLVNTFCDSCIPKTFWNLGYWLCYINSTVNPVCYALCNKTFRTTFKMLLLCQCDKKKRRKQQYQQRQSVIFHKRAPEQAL
Vasopressin V1a receptor (Homo sapiens), sequence (P37288 whole entry, looked up): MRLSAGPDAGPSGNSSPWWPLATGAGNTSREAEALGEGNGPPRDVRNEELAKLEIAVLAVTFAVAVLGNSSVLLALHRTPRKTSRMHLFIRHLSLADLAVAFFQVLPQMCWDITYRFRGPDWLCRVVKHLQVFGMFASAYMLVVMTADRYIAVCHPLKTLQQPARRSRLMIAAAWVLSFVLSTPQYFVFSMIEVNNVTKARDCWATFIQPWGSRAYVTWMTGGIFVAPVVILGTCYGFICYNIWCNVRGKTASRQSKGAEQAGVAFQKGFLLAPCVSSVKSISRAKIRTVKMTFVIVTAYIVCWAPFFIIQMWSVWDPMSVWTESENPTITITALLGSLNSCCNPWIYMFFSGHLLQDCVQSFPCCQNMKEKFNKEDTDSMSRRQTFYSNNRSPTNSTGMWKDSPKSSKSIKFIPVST
Muscarinic acetylcholine receptor M1 (Homo sapiens), sequence (P11229 whole entry): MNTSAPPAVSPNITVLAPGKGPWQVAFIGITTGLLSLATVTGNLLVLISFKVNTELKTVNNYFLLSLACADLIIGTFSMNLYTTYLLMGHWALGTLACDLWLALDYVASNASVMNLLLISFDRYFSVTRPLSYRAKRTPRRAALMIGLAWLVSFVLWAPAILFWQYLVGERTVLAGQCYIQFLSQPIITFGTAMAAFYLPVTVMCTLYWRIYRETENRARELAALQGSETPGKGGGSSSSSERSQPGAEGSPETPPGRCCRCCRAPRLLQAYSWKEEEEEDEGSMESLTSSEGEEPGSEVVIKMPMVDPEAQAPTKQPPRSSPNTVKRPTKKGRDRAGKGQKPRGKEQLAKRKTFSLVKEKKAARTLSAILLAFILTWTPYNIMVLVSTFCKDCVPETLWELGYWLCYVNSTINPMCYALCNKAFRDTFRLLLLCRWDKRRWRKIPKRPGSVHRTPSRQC

CC(C)CCO[C@@H]1[C@H]2OC(C)(C)O[C@H]2[C@H]2Cn3cc(nn3)COCCCCCCN(CCc3ccc4ccccc4c3)CC[C@H]1O2
inhibition [1]: 64.1% | inhibition [2]: 55.7% | inhibition [3]: 68.3% | inhibition [4]: 102% | inhibition [5]: 19% | Activity [6]: 14.8% | inhibition [7]: 14% | inhibition [8]: 22.7% | inhibition [9]: 89% | inhibition [10]: 25.2% | inhibition [11]: 10.8% | inhibition [12]: 48.3% | inhibition [13]: 41.2% | inhibition [14]: 31% | inhibition [15]: 60.5% | inhibition [16]: 35.2% | Activity [17]: 17.4% | inhibition [18]: 61.4% | inhibition [19]: 33.8% | inhibition [20]: 17.2% | inhibition [21]: 57.7% | inhibition [22]: 19% | IC50 [23]: 0.49 µM | Ki [23]: 0.31 µM | IC50 [24]: 1.8 µM | Ki [24]: 0.97 µM | IC50 [25]: 1.6 µM | Ki [25]: 0.87 µM | IC50 [26]: 7.4 µM | Ki [26]: 3.4 µM | inhibition [27]: 3.9%
